Consider 4 compounds from patent US20210002641A1, “COMPOSITIONS AND METHODS FOR TREATING GRAVES DISEASE” (The Regents of the University of Michigan, priority 2018, published 2021).

Test [1] concerns 3D G-OF organoids. Put plainly: Tissue stiffness of 3D G-OF organoids (microindentation compression test). The test is classed as cell-based, human. To be noted: for tissue stiffness of 3D G-OF organoids: added day 1, kept to day 6, 10 μM GM6001, 30 nM T3, 5 mIU/ml TSH, 0.5 mM BAPN, 1, 5 or 10 μM HIF2A antagonist. An excerpt: (§1) Orbital adipose tissues were obtained from surgical waste samples of de-identified euthyroid patients with GO undergoing orbital decompression and from non-GO subjects without inflammatory orbital disease, who underwent cosmetic eyelid surgery. OFs were isolated and grown as previously described (49). Briefly, tissues were minced into small pieces, placed on 150 mm culture dishes, and submerged in growth medium (DMEM supplemented with 10% v/v FBS, 1% v/v L-glutamine, 1% v/v antibiotic-antimycotic) at a sufficient depth to cover the tissue chunks. Explants were cultured in a humidified incubator • (at 37° C. with 5% CO2), with growth medium changes every 2-3 days. OFs from five GO patients five non-GO patients were isolated and expanded for subsequent experiments. All experiments were performed using OFs of 3-6 passages after the initial cell isolation.
(§2) A hanging droplet spheroid culture system was used to generate 3D organoids. To facilitate stable morphology, methylcellulose (Mehocel A4M) was added to the growth medium (52). Prior to seeding the hanging drop culture plate (#HDP1385, Sigma-Aldrich), cells were cultured in 100 mm or 150 mm dishes until reaching approximately 90% confluence. After washing with Hank's Balanced Salt Solution (HBSS), cells were detached using 0.25% Trypsin/EDTA and resuspended in growth medium. After centrifugation for 5 minutes at 300 g, the cell pellet was re-suspended in growth medium containing 0.25% w/v Methocel A4M. Volume was adjusted such that 20,000 cells were contained in 25 μL solution, and 25 μL drops were placed into each well of the drop culture plate (defined as day 0). Organoid medium (growth medium with 0.25% w/v methocel A4M) was used throughout the duration of spheroid culture. Every day, 14 μL culture medium was removed and 14 μL fresh culture medium added to each well.
Adipogenic differentiation was induced with (growth or organoid) medium containing 250 nM dexamethasone, 10 nM T3, 10 μM troglitazone, and 1 μg/ml insulin on days 1-5, followed by medium with 10 μM troglitazone and 1 μg/ml insulin on days 6-11, then with medium alone on day 12. For the analysis of the lipid droplet formation, organoids were transferred to super-low attachment 6 well dishes and incubated in HBSS containing BODIPY (#D3922, Thermo Fisher Scientific) at 1:500 ratio by volume for 1 hour, then fixed in 4% paraformaldehyde (PFA) in PBS for 10 minutes at room temperature. […] Several compounds were added to droplets on day 1 and maintained at the same concentration until collection of organoids on day 6. For individual experiments, these included 10 μM GM6001, (global MMP inhibitor), 30 nM T3, 5 mIU/ml TSH, 30 nM T3+5 mIU/ml TSH, 0.5 mM BAPN (LOX inhibitor), and 1 μM, 5 μM or 10 μM HIF2A antagonist.
The mechanical testing of the organoids was performed using the Microsquisher (CellScale, Waterloo, ON, Canada) as recently reported (53). The device consists of a microscale parallelplate compression system equipped with a 406-μm diameter cantilever. Organoids placed on a 3 mm-square plate for analysis. Immediately following collecting, organoids were placed in a 40 mL HBSS fluid bath at 37° C. and the cantilever was lowered until the upper compression plate was in contact with the top of the organoid. The organoids were compressed to 50% deformation (as determined by microscopic camera) for 20 seconds. The force used to produce 50% stain of displacement was measured by the cantilever and data were reported as force/displacement (μN/μm).

Test [2] relates to 3D G-OF organoids. Put plainly: Immunofluorescent staining of ECM, LOX and HIF2A proteins in 3D G-OF organoids. In kind it is cell-based, human. The following applies: for ECM deposition (collagen types, FN) in G-OF organoids: immunofluorescence, 10 μM GM6001, 30 nM T3, 5 mIU/ml TSH, 0.5 mM BAPN, day 1-6. The method, then:
as §2
Adipogenic differentiation was induced with (growth or organoid) medium containing 250 nM dexamethasone, 10 nM T3, 10 μM troglitazone, and 1 μg/ml insulin on days 1-5, followed by medium with 10 μM troglitazone and 1 μg/ml insulin on days 6-11, then with medium alone on day 12. For the analysis of the lipid droplet formation, organoids were transferred to super-low attachment 6 well dishes and incubated in HBSS containing BODIPY (#D3922, Thermo Fisher Scientific) at 1:500 ratio by volume for 1 hour, then fixed in 4% paraformaldehyde (PFA) in PBS for 10 minutes at room temperature. Fluorescence intensity of BODIPY-stained lipid droplets were measured using Nikon A1 confocal microscope (Tokyo, Japan) and quantified using Image J software version 1.51n (NIH, Bethesda, Md.). Several compounds were added to droplets on day 1 and maintained at the same concentration until collection of organoids on day 6. For individual experiments, these included 10 μM GM6001, (global MMP inhibitor), 30 nM T3, 5 mIU/ml TSH, 30 nM T3+5 mIU/ml TSH, 0.5 mM BAPN (LOX inhibitor), and 1 μM, 5 μM or 10 μM HIF2A antagonist.
Organoids were fixed in 4% PFA/PBS overnight with or without permeabilization in 0.5% Triton X-100 in PBS for 1 hour. To stain extracellular collagen and fibronectin, no permeabilization was performed, and all the detergents were excluded from the subsequent procedures. After blocking in 3% BSA/0.1% PBST for 3 hours at room temperature, organoids were washed 3 times for 30 minutes with PBST. Samples were incubated with primary antibody overnight at 4° C. […]

Test [3] deals with 3D N-OF organoids. Put plainly: Immunofluorescent staining of ECM and HIF2A proteins in 3D N-OF organoids. The following applies: immunofluorescence; 10 μM GM6001. In kind it is cell-based, human. The method, then:
as §2, with “Every day, 14 μL culture medium was removed and 14 μL fresh culture medium added to each well.” left out
(§3) Adipogenic differentiation was induced with (growth or organoid) medium containing 250 nM dexamethasone, 10 nM T3, 10 μM troglitazone, and 1 μg/ml insulin on days 1-5, followed by medium with 10 μM troglitazone and 1 μg/ml insulin on days 6-11, then with medium alone on day 12. […] Fluorescence intensity of BODIPY-stained lipid droplets were measured using Nikon A1 confocal microscope (Tokyo, Japan) and quantified using Image J software version 1.51n (NIH, Bethesda, Md.). […]

In test [4] the test system is 3D N-OF organoids. As to the kind of experiment: Tissue stiffness of 3D N-OF organoids (microindentation compression test). The test is classed as cell-based, human. To be noted: added day 1, kept to day 6; 10 μM GM6001, 5 mIU/ml TSH.
Description: as §1
A hanging droplet spheroid culture system was used to generate 3D organoids. […]
The mechanical testing of the organoids was performed using the Microsquisher (CellScale, Waterloo, ON, Canada) as recently reported (53). […] The organoids were compressed to 50% deformation (as determined by microscopic camera) for 20 seconds. The force used to produce 50% stain of displacement was measured by the cantilever and data were reported as force/displacement (μN/μm).

In another test the test system is mouse OF organoids. Put plainly: Tissue stiffness of 3D mouse OF organoids expressing mutant HIF2A (HIF2dPA). To be noted: adeno-Cre-induced HIF2dPA. In kind it is cell-based. The method, then: ROSA26-STOP-HIF2dPA (flox/flox) mice were provided by Dr. Emestina Schipani (University of Michigan), and used for the isolation of orbital adipose tissue. Cells isolated from this depot were cultivated as previously reported (50) and cultured in a standard growth medium. A degradation-resistant HIF2A mutant was introduced by adenoviral Cre (Vector; Ad5 CMV-Cre)-recombinase by incubation for 16 hours with the virus. Adenoviral GFP (Vector; Ad5 CMV eGFP.dIE3) or Empty (Vector: Ad5 CMV pLpA.dIE3)-recombinase was used as controls.
(§4) A hanging droplet spheroid culture system was used to generate 3D organoids. To facilitate stable morphology, methylcellulose (Mehocel A4M) was added to the growth medium (52). Prior to seeding the hanging drop culture plate (#HDP1385, Sigma-Aldrich), cells were cultured in 100 mm or 150 mm dishes until reaching approximately 90% confluence. After washing with Hank's Balanced Salt Solution (HBSS), cells were detached using 0.25% Trypsin/EDTA and resuspended in growth medium. […]
The mechanical testing of the organoids was performed using the Microsquisher (CellScale, Waterloo, ON, Canada) as recently reported (53). […] The organoids were compressed to 50% deformation (as determined by microscopic camera) for 20 seconds. The force used to produce 50% stain of displacement was measured by the cantilever and data were reported as force/displacement (μN/μm). […]

The subject of test [5] is 3D G-OF organoids. Put plainly: Organoid size (cross-sectional area) of 3D G-OF organoids. The following applies: T3 30 nM, TSH 5 mIU/ml, or combination; 6-day time course. In kind it is cell-based, human. The method, then: as §4, with “medium. After centrifugation for 5 minutes at 300 g, the cell pellet was re-suspended in growth medium containing 0.25% w/v Methocel A4M.” for “medium.”
as §3
Bright field images of each organoid were captured in 4× or 10× objective lenses using inverted microscope (Olympus IX70). The largest cross-sectional area (CSA) was calculated using Image J software version 1.51n. […] Intensity of immunofluorescent target proteins was quantified using NIH ImageJ software. […]

The mark [6] stands for this setting: listed as allosteric HIF2A antagonist.

Turning to `CNC(=O)[C@H](Cc1c[nH]c2ccccc12)NC(=O)[C@@H](CC(=O)NO)CC(C)C` [GM6001], in the test with 3D G-OF organoids [1], the “tissue stiffness of 3D G-OF organoids” value was “increased tissue stiffness”. Besides, the “ECM deposition (collagen types, FN) in G-OF organoids” value (from here on “ECM deposition (collagen types, FN)”) in the test with 3D G-OF organoids [2] is “significant accumulation of type I, IV, and VI collagens”. For the same compound, the “ECM deposition (collagen types) in N-OF spheroids” value in the test with 3D N-OF organoids [3] is “significant accumulation of type I, IV, and VI collagens”. Moreover, in the test with 3D N-OF organoids [4], the “tissue stiffness of 3D N-OF organoids” value is given as “increased tissue stiffness”.

Consider `N#CCCN.O=C(O)/C=C/C(=O)O` [BAPN, 3-Aminopropionitrile fumarate salt], for which the “tissue stiffness of 3D G-OF organoids” value with 3D G-OF organoids [1] is listed as “reduction of tissue stiffness”. Moreover, in the test on 3D G-OF organoids [2], the “ECM deposition (collagen types, FN)” value is “effectively suppressed the deposition of collagens type I and IV, FN, but not collagen type III and VI”. Moreover, in the test with mouse OF organoids, the “tissue stiffness of mouse OF organoids with mutant HIF2A expression” value is listed as “completely ameliorated the increased tissue stiffness”.

For `N[C@@H](Cc1cc(I)c(Oc2ccc(O)c(I)c2)c(I)c1)C(=O)O` [T3, 3,3′,5-Triiodo-L-thyronine], the “ECM deposition (collagen types, FN)” value in the test with 3D G-OF organoids [2] is given as “no discemable impact”. Besides, the “organoid size (CSA) of G-OF organoids” value with 3D G-OF organoids [5] is “significant reduction in CSA”.

With `O=[N+]([O-])c1c(Nc2cc(F)cc(Cl)c2)ccc2nonc12` [C12H6ClFN4O3], in the test with 3D G-OF organoids [1] (listed as C12H6ClFN4O03), the “tissue stiffness of M22-stimulated G-OF organoids” value is given as “reversed the tissue stiffness caused by TSHR activation” and the “tissue stiffness of TSH-stimulated G-OF organoids” value is on record as “reversed the tissue stiffness caused by TSHR activation”. Further, in the test on 3D G-OF organoids [1] (setting [6]), the “tissue stiffness of M22-stimulated G-OF organoids” value is “reverses” and the “tissue stiffness of TSH-stimulated G-OF organoids” value was “reverses”. Further, the “tissue stiffness of 3D G-OF organoids” value in the test on 3D G-OF organoids [1] is on record as “normalized the tissue stiffness”. Besides, the “protein levels of LOX and FN in G-OF organoids” value in the test with 3D G-OF organoids [2] (HIF2A antagonist 1 μM, 5 μM or 10 μM) is “reducing protein levels of LOX and FN, in a dose-dependent manner”.
